Test results: article PMC4352280, “Bioactivity guided fractionation and hypolipidemic property of a novel HMG-CoA reductase inhibitor from Ficus virens Ait” (Lipids in Health and Disease, 2015)

Molecular target: T1, HMG-CoA reductase (Homo sapiens, UniProt P04035)
T1 construct: gene HMGCR; catalytic domain of the human enzyme (recombinant GST fusion protein expressed in E. coli)
T1 sequence (P04035 426-888 limits assumed): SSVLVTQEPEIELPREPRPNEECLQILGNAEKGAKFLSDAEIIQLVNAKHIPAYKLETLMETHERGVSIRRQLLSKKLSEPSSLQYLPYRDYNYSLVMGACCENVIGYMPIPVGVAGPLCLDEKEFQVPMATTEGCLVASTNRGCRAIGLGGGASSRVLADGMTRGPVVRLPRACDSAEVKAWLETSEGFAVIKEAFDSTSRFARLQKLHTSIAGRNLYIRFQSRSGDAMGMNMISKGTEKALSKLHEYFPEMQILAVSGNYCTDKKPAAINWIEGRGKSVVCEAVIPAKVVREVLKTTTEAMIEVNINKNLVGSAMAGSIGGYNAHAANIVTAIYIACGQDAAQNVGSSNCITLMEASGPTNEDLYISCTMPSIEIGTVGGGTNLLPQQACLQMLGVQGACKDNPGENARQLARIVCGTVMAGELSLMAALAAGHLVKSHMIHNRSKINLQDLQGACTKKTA
Assay: spectrophotometric HMG-CoA reductase assay; Lineweaver-Burk and Dixon plots
Format: biochemical

CCCCCCCCCCCCCCCCCCO[C@H]1O[C@H](CO[C@H]2O[C@H](CO)[C@@H](O)[C@H](O)[C@H]2O)[C@@H](O)[C@H](O)[C@H]1O [F18, n-Octadecanyl-O-α-D-glucopyranosyl(6′ → 1″)-O-α-D-glucopyranoside]
IC50: 141 nM
